Marks after values point to notes of the source that are not given here.

This is an account of results in patent US10993947B2, “Treatment of skin lesions” (PIQUR THERAPEUTICS AG, priority 2016, dated 2021).

In series [1] the test system is pig skin (lower epidermis and dermis). The series is described as follows: Ex vivo pig skin penetration, first study (80% SBECD formulations). Format: in vitro ADME. The text has this: FIG. 3: PK profiles of nine formulations comprising the inventive compounds and control have been assessed. The control formulation Aldara (5% imiquimod) was applied to detect variations in skin permeability (local variability in the same animal and inter-subject variability). The stratum corneum was removed by tape stripping to avoid contamination during the biopsy extraction. […] One biopsy was taken from each control site. Additionally, 5 blank samples were taken.
Ex vivo and in vivo models to assess the penetration of various drug substances including the inventive compounds in the skin of pigs have been established. This model allows to assess the PK profile of several drug candidates including the inventive compounds in one subject, thereby enhancing comparability and avoiding inter-subject variability.
In the first study (FIG. 3, Table 15) the PK profiles of nine test formulations have been assessed using 80% SBECD either at pH3 or pH 7.

Series [2] concerns the target T1, N-terminally GST-tagged mTOR (Homo sapiens, UniProt P42345).
T1 construct: truncated version: amino acids 1360-2549; purchased Life Technologies PR8683B
The series is described as follows: In vitro mTOR binding assay (LanthaScreen TR-FRET). Particulars: LanthaScreen kinase binding, Tracer 314; read-out: mTOR IC50 (binding). In general terms: Time-resolved FRET reads energy transfer from a long-lived donor to a nearby acceptor.
Method: A 10-point 4-fold serial dilution (highest concentration at 10 μmol/L and lowest concentration at 40 μmol/L) of each compound was tested for mTOR binding in duplicate in a 384-well plate. […] After 30 min incubation at RT, time-resolved FRET was measured with a Synergy 4 multi-mode microplate reader (Biotek Instruments) using the following settings: 100 microsecs delay before data collection, 200 microsecs time for data collection, 10 measurements per data point.
IC50 values of each compound were determined by plotting the emission ratio versus the compound concentrations (in logarithmic scale) and then by fitting a sigmoidal dose-response curve with variable slope to the data using GraphPad™ Prism.

The test system of the next series is excised pig skin. As to conditions: 1 %.
Series [3] has as its system pS6 S235/S236 in A2058 cells. The series is described as follows: In-cell Western blot, pS6 S235/S236. Type of series: cell-based. As to conditions: Homo sapiens, 1 hour treatment.
Method: (§1) Cells are fixed with 4% paraformaldehyde for 30 minutes at room temperature, washed 2 times with 1% BSA in PBS, permeabilized with 0.1% Triton X-100 in PBS/1% BSA for 30 minutes at room temperature and blocked with 5% goat serum in PBS/1% BSA/0.1% Triton X-100 for 30 minutes at room temperature. […] Cells are washed 3 times 5 minutes with PBS/1% BSA/0.1% triton and plate scanned with the Odyssey Infrared Scanning system using both 700 and 800 nm channels. […] To correct for background staining in the data analysis wells are treated only with secondary antibodies.
(§2) For data analysis the mean background signal from channel 700 nm and 800 nm are subtracted from each signal in channel 700 nm and 800 nm, respectively.
(§3) IC50 values of each compound are determined by plotting the normalized pPBK S473 and pS6 S235/S236 signals, respectively, versus the compound concentrations (in logarithmic scale) and then by fitting a sigmoidal dose-response curve with variable slope to the data using GraphPad™ Prism.
For the next series, the system named is pPKB S473 in A2058 cells. The series is described as follows: In-cell Western blot, pPKB S473. Type of series: cell-based. As to conditions: Homo sapiens, 1 hour treatment.

T1 sequence (P42345 1360-2549): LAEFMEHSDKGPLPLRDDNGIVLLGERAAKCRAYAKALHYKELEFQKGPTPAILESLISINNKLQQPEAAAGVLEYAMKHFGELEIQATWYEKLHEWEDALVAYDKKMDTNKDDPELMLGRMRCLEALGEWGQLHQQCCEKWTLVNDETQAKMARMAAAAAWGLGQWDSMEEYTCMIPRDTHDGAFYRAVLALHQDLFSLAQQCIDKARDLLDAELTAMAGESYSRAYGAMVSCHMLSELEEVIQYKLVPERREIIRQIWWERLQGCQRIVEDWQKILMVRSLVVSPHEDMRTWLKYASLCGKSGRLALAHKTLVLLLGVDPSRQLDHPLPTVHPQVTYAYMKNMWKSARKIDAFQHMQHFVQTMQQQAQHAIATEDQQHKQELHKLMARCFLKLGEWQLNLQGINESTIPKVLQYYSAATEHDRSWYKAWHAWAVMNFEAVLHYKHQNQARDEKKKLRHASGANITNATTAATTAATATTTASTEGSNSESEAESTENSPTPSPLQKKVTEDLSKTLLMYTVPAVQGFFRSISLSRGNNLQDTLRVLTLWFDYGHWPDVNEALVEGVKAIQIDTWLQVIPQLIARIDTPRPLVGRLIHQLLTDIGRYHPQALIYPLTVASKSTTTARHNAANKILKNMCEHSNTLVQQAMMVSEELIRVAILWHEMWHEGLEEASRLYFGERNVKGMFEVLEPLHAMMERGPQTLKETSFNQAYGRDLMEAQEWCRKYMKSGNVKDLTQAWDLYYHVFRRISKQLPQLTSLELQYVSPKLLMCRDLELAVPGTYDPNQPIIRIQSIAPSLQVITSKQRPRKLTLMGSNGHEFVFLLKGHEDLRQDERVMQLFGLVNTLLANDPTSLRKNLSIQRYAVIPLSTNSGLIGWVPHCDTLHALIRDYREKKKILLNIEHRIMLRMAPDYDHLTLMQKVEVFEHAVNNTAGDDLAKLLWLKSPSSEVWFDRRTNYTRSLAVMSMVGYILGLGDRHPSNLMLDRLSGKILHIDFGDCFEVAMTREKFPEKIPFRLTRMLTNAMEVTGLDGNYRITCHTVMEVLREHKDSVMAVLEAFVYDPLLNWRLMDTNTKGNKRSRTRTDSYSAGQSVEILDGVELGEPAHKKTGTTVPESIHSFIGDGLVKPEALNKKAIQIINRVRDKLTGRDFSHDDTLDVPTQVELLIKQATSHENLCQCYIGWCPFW
From the text for excised pig skin: Excised pig skin was placed in a climate chamber to control temperature and humidity. […] Before biopsies were taken the stratum corneum was removed by tape stripping and biopsies consisted of the remaining epidermis and entire dermis.
Method for pPKB S473 in A2058 cells: as §1, §2, §3

Regarding `Nc1cc(C(F)F)c(-c2nc(N3C4CCC3COC4)nc(N3C4CCC3COC4)n2)cn1` [Compound 3, 5-(4-(3-oxa-8-azabicyclo[3.2.1]octan-8-yl)-6-(3-oxa-8-azabicyclo[3.2.1]octan-8-yl)-1,3,5-triazin-2-yl)-4-(difluoromethyl)pyridin-2-amine], in series [1] (1% experimental formulations, 80% SBECD, ex vivo), the “penetration into pig skin” value was “penetrated into pig skin (lower epidermis and dermis) to a significant extent”. Besides, the “intrinsic penetration properties compared with imiquimod (Aldara 5% cream)” value in series [1] (ex vivo pig skin, estimated) is given as “slightly lower”. Also, the IC50 stood at 8 nM in series [2]; 105 nM in series [3] (A2058, 1 h); 231 nM in the series with pPKB S473 in A2058 cells (A2058, 1 h). Besides, the “skin concentration / skin PK profile” value in the series with excised pig skin is “comparable to Cpd1*”.
As to `C[C@@H]1COC[C@H](C)N1c1nc(-c2cnc(N)cc2C(F)F)nc(N2[C@H](C)COC[C@@H]2C)n1` [Compound 40, 5-[4,6-bis[(3R,5S)-3,5-dimethylmorpholin-4-yl]-1,3,5-triazin-2-yl]-4-(difluoromethyl)pyridin-2-amine], the IC50 in series [2] is 5 nM; in series [3] it was 160 nM; in the series with pPKB S473 in A2058 cells it was 252 nM.
For the compound `C[C@H]1COCCN1c1nc(-c2cnc(N)nc2C(F)(F)F)cc(N2CCOCC2)n1` [reference compound], the IC50 in series [2] turned out to be 186 nM; in series [3] (A2058, 1 h) it was 535 nM; with pPKB S473 in A2058 cells (A2058, 1 h), 191 nM.
On to `Nc1cc(C(F)(F)F)c(-c2nc(N3CCOCC3)cc(N3CCOCC3)n2)cn1` [reference compound], for which the figures for the IC50 (in series [2]; in series [3]; in the series on pPKB S473 in A2058 cells) were 366 nM, 665 nM and 555 nM, respectively.
Taken in the same sequence, the figures for `C[C@H]1COCCN1c1nc(-c2cnc(N)cc2C(F)F)nc(N2CCOCC2)n1` [Compound 8, (S)-4-(difluoromethyl)-5-(4-(3-methylmorpholino)-6-morpholino-1,3,5-triazin-2-yl)pyridin-2-amine] were 10 nM, 68 nM and 74 nM.
With `Nc1cc(C(F)F)c(-c2nc(N3CCOCC3)nc(N3CCSCC3)n2)cn1` [Compound 20], the IC50 came to 13 nM in series [2]; 250 nM in series [3] (A2058, 1 h); 146 nM in the series with pPKB S473 in A2058 cells (A2058, 1 h).
As to `C[C@H]1COCCN1c1nc(-c2cnc(N)cc2C(F)F)cc(N2CCOCC2)n1` [Compound 31, (S)-4-(difluoromethyl)-5-(2-(3-methylmorpholino)-6-morpholinopyrimidin-4-yl)pyridin-2-amine], the IC50 in series [2] stood at 15 nM; in series [3], 124 nM; in the series with pPKB S473 in A2058 cells, 146 nM.
As for `C[C@H]1COCCN1c1nc(-c2cnc(N)nc2C(F)F)cc(N2CCOCC2)n1` [Compound 32, (S)-4′-(difluoromethyl)-2-(3-methylmorpholino)-6-morpholino-[4,5′-bipyrimidin]-2′-amine], the results for the IC50 (in series [2]; in series [3]; in the series on pPKB S473 in A2058 cells) were 293 nM, 387 nM and 100 nM, respectively.
For `Nc1ncc(-c2nc(N3CCOCC3)nc(N3CCSCC3)n2)c(C(F)F)n1` [Compound 21], the IC50 in series [2] worked out at 54 nM; in series [3] (A2058, 1 h), 216 nM; with pPKB S473 in A2058 cells (A2058, 1 h), 57 nM.
On the same counts, the results for `Nc1ncc(-c2cc(N3CCOCC3)nc(N3CCOCC3)n2)c(C(F)(F)F)n1` [reference compound] are 644 nM, 384 nM and 194 nM.
On the same counts, the results for `C[C@H]1COCCN1c1cc(-c2cnc(N)nc2C(F)(F)F)nc(N2CCOCC2)n1` [reference compound] are 1250 nM, 1030 nM and 290 nM.
Taken in the same sequence, the figures for `C[C@@H]1COCCN1c1nc(-c2cnc(N)cc2C(F)F)nc(N2CCOCC23CCC3)n1` [Compound 88, 4-(difluoromethyl)-5-[4-[(3R)-3-methylmorpholin-4-yl]-6-(8-oxa-5-azaspiro[3.5]nonan-5-yl)-1,3,5-triazin-2-yl]pyridin-2-amine] were 18 nM, 192 nM and 271 nM.
With `Nc1ncc(-c2nc(N3CCOCC3)cc(N3CCOCC3)n2)c(C(F)(F)F)n1` [reference compound], the IC50 worked out at 1920 nM in series [2]; 370 nM in series [3] (A2058, 1 h); 175 nM in the series with pPKB S473 in A2058 cells (A2058, 1 h).
On the same counts, the results for `C[C@H]1COCCN1c1cc(-c2cnc(N)nc2C(F)(F)F)nc(N2CCOC[C@@H]2C)n1` [reference compound] are 287 nM, 617 nM and 193 nM.
On the same counts, the results for `CC1(C)COCCN1c1nc(-c2cnc(N)cc2C(F)F)nc(N2CCOCC2)n1` [Compound 42, 4-(difluoromethyl)-5-[4-(3,3-dimethylmorpholin-4-yl)-6-morpholino-1,3,5-triazin-2-yl]pyridin-2-amine] are 3 nM, 45 nM and 54 nM.

By IC50 is commonly meant the concentration at which inhibition is half-maximal.
